Where a name gives a salt, the structure may show the parent alone.
The compounds below were run on STING activation (IFNβ release) in iBMDMs (assay: IFNβ release ELISA after STING ligand (or LPS) stimulation, iBMDMs). Conditions: 16 h, 10 µM.
Format: cell-based, mouse
Method in brief: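 IFNβ released into the medium was quantified by ELISA (mouse or human kit) after iBMDM stimulation with the canonical STING agonist 3′3′-cGAMP or with LPS.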

| SMILES | fold increase in IFN-β release |
| --- | --- |
| CCc1c(C(=O)C(N)=O)c2c(OCC(=O)O)cccc2n1Cc1ccccc1 [Varespladib (LY315920), Varespladib] | 1.18 fold |

Same assay, conditions: iBMDMs; 3′3′-cGAMP 10 μg/ml, 16 hours; compound 10 μM

| SMILES | fold increase in IFN-β release | 3′3′-cGAMP-induced IFNβ release |
| --- | --- | --- |
| Cc1ccc(S(=O)(=O)Cc2nc(-c3ccc(C(=O)NCc4cccnc4)cc3)oc2C)cc1 [STF-118804] | 1.41 fold |  |
| Cc1[nH]c(/C=C2\C(=O)Nc3ccc(S(=O)(=O)N(C)c4cccc(Cl)c4)cc32)c(C)c1C(=O)N1CCN(C)CC1 [SU11274] | 0.75 fold |  |
| C[C@H](NCc1ccc(OCc2cccc(F)c2)cc1)C(N)=O [Safinamide Mesylate] | 5.18 fold |  |
| O=C(/C=C/c1ccccc1)NC(NC(=S)Nc1ccc(Cl)cc1)C(Cl)(Cl)Cl (stereo not shown) [Sal003] | 0.18 fold |  |
| CCOC(=O)NCCCC(=O)NCCc1ccccc1 [Santacruzamate A (CAY10683), Santacruzamate A] | 1.18 fold |  |
| Cn1cnc2c(F)c(Nc3ccc(Br)cc3Cl)c(C(=O)NOCCO)cc21 [Selumetinib (AZD6244), Selumetinib] | 0.50 fold |  |
| CC(C)[C@H](O)C(=O)N[C@@H](C)C(=O)N[C@@H]1C(=O)N(C)CCc2ccccc21 [Semagacestat (LY450139), Semagacestat] | 1.04 fold |  |
| CN[C@H]1CC[C@@H](c2ccc(Cl)c(Cl)c2)c2ccccc21 [Sertraline HCl] | 0.22 fold |  |
| CC(NC(=O)c1ccccc1/N=C/c1c(O)ccc2ccccc12)c1ccccc1 (stereo not shown) [Sirtinol] | 0.26 fold |  |
| Cc1cc2c(cc1CC(=O)c1sccc1S(=O)(=O)Nc1onc(C)c1Cl)OCO2 [Sitaxentan sodium] | 1.16 fold |  |
| Nc1ccc(C(=O)[O-])c(O)c1.[Na+] [Sodium 4-Aminosalicylate] | 0.74 fold |  |
| CNC(=O)c1cc(Oc2ccc(NC(=O)Nc3ccc(Cl)c(C(F)(F)F)c3)cc2)ccn1 [Sorafenib] | 0.91 fold |  |
| CN1CCN(c2nc(C3=C(c4c[nH]c5ccccc45)C(=O)NC3=O)c3ccccc3n2)CC1 [Sotrastaurin] | 0.59 fold |  |
| O=[N+]([O-])c1ccc2c(c1)S(=O)(=O)C=C2 [Stattic] | 0.10 fold |  |
| Cc1cn([C@H]2C=C[C@@H](CO)O2)c(=O)[nH]c1=O [Stavudine (d4T), Stavudine] | 8.20 fold | promoted |
| Cc1ccc(-n2nccn2)c(C(=O)N2CCN(c3nc4cc(Cl)ccc4o3)CC[C@H]2C)c1 [Suvorexant (MK-4305), Suvorexant] | 1.54 fold |  |
| O=C(Nc1ccncc1)c1cc([N+](=O)[O-])ccc1Cl [T0070907] | 2.09 fold |  |
| O=S(=O)(c1ccccc1)N(CC(F)(F)F)c1ccc(C(O)(C(F)(F)F)C(F)(F)F)cc1 [T0901317] | 1.49 fold |  |
| CNC(=O)c1ccccc1Nc1nc(Nc2ccc(N3CCOCC3)cc2OC)ncc1Cl [TAE226 (NVP-TAE226)] | 1.50 fold |  |
| CNC(=O)c1ccc2cc([C@@]3(O)CCn4cncc43)ccc2c1 [TAK-700 (Orteronel), Orteronel] | 2.72 fold |  |
| Cc1cc(OCCCS(C)(=O)=O)cc(C)c1-c1cccc(COc2ccc3c(c2)OC[C@H]3CC(=O)O)c1 [TAK-875] | 1.17 fold |  |
| O=C1CC(=O)c2c(Cl)c(Cl)c(Cl)c(Cl)c21 [TCID] | 1.43 fold |  |

| SMILES | fold increase in IFN-β release | 3′3′-cGAMP-induced IFNβ release |
| --- | --- | --- |
| COc1ccc(C(=O)Nc2sc3c(c2C(N)=O)CCCC3)cc1OC [TCS 359] | 0.45 fold |  |
| Nc1nc(N)c2nc(-c3cccc(O)c3)c(-c3cccc(O)c3)nc2n1 [TG100-115] | 2.65 fold |  |
| O=C(NCC1(c2nc(-c3ccccc3)cs2)CCOCC1)c1cccc(-c2noc(C(F)(F)F)n2)c1 [TMP269] | 1.59 fold |  |
| NC(=O)Nc1sc(-c2ccc(F)cc2)cc1C(N)=O [TPCA-1] | 2.63 fold |  |
| Nc1cccc(-c2cc3c(Oc4cccc(O)c4)ncnc3[nH]2)c1 [TWS119] | 0.35 fold |  |
| CN1CC(=O)N2[C@H](c3ccc4c(c3)OCO4)c3[nH]c4ccccc4c3C[C@@H]2C1=O [Tadalafil] | 2.66 fold |  |
| COc1cc2c(N3CCN(C(=O)Nc4ccc(OC(C)C)cc4)CC3)ncnc2cc1OCCCN1CCCCC1 [Tandutinib (MLN518), Tandutinib] | 0.65 fold |  |
| COc1cc2c(cc1OC)CN(CCc1ccc(NC(=O)c3cc(OC)c(OC)cc3NC(=O)c3cnc4ccccc4c3)cc1)CC2 [Tariquidar] | 0.77 fold |  |
| CCCc1nc2c(C)cc(-c3nc4ccccc4n3C)cc2n1Cc1ccc(-c2ccccc2C(=O)O)cc1 [Telmisartan] | 2.26 fold |  |
| CO[C@H]1C[C@@H]2CC[C@@H](C)[C@@](O)(O2)C(=O)C(=O)N2CCCC[C@H]2C(=O)O[C@H]([C@H](C)C[C@@H]2CC[C@@H](OC(=O)C(C)(CO)CO)[C@H](OC)C2)CC(=O)[C@H](C)/C=C(\C)[C@@H](O)[C@@H](OC)C(=O)[C@H](C)C[C@H](C)/C=C/C=C/C=C/1C [Temsirolimus (CCI-779, NSC 683864), Temsirolimus] | 0.73 fold |  |
| CC(C)OC(=O)OCOP(=O)(CO[C@H](C)Cn1cnc2c(N)ncnc21)OCOC(=O)OC(C)C [Tenofovir Disoproxil Fumarate] | 2.88 fold |  |
| CN(C)CCCCC(=O)Nc1ccc(NC(=S)NC(=O)c2ccc(C(C)(C)C)cc2)cc1 [Tenovin-6] | 0.53 fold |  |
| O=C(NCc1ccccc1)c1csc(Nc2ccncn2)n1 [Thiazovivin] | 8.11 fold | promoted |
| CCCSc1nc(N[C@@H]2C[C@H]2c2ccc(F)c(F)c2)c2nnn([C@@H]3C[C@H](OCCO)[C@@H](O)[C@H]3O)c2n1 [Ticagrelor] | 1.70 fold |  |
| COc1ccc2cc(-c3nc(-c4ccc([S+](C)[O-])cc4)[nH]c3-c3ccncc3)ccc2c1 (stereo not shown) [Tie2 kinase inhibitor] | 2.04 fold |  |
| O=c1oc2cc(O)ccc2s1 [Tioxolone] | 1.88 fold |  |
| C[C@@H]1CCN(C(=O)CC#N)C[C@@H]1N(C)c1ncnc2[nH]ccc12 [Tofacitinib (CP-690550, Tasocitinib), Tofacitinib] | 1.49 fold |  |
| c1ccc(CC2=NCCN2)cc1 [Tolazoline HCl] | 1.46 fold |  |
| Cc1c(Cl)cccc1Nc1ccccc1C(=O)O [Tolfenamic Acid] | 2.19 fold |  |
| Cc1ccccc1C(=O)Nc1ccc(C(=O)N2CCCC(O)c3cc(Cl)ccc32)c(C)c1 (stereo not shown) [Tolvaptan] | 1.20 fold |  |
| CCOC(=O)N1c2ccc(C(F)(F)F)cc2[C@@H](N(Cc2cc(C(F)(F)F)cc(C(F)(F)F)c2)C(=O)OC)C[C@H]1CC [Torcetrapib] | 3.84 fold |  |
| CN(C)CCOc1ccc(/C(=C(/CCCl)c2ccccc2)c2ccccc2)cc1 [Toremifene Citrate] | 0.19 fold |  |

| SMILES | fold increase in IFN-β release | 3′3′-cGAMP-induced IFNβ release |
| --- | --- | --- |
| Cn1c(=O)cc(N2CCC[C@@H](N)C2)n(Cc2cc(F)ccc2C#N)c1=O [Trelagliptin] | 1.80 fold |  |
| Nc1nc(N)c2nc(-c3ccccc3)c(N)nc2n1 [Triamterene] | 0.99 fold |  |
| CC(/C=C/C(=O)NO)=C\[C@@H](C)C(=O)c1ccc(N(C)C)cc1 [Trichostatin A (TSA), Trichostatin A] | 0.39 fold |  |
| CCC(COC(=O)c1cc(OC)c(OC)c(OC)c1)(c1ccccc1)N(C)C (stereo not shown) [Trimebutine] | 0.30 fold |  |
| O=C(O[C@H]1C[C@H]2CC[C@@H](C1)[N+]21CCCC1)C(O)(c1ccccc1)c1ccccc1 [Trospium chloride] | 0.76 fold |  |
| O=C(CCCCCCC(=O)Nc1ccc([C@H]2O[C@@H](CSc3nc(-c4ccccc4)c(-c4ccccc4)o3)C[C@@H](c3ccc(CO)cc3)O2)cc1)NO [Tubacin] | 1.05 fold |  |
| CC(C)(C)c1cc(/C=C(\C#N)C(N)=S)cc(C(C)(C)C)c1O [Tyrphostin AG 879] | 1.99 fold |  |
| CCO.N#CC(=C(/N)Sc1ccccc1N)/C(C#N)=C(\N)Sc1ccccc1N [U0126-EtOH] | 0.70 fold |  |
| O=C(c1cncc(Br)c1)N1CCC(N2CCCC2)CC1 [UNC669] | 1.99 fold |  |
| NC(=O)c1cccc(-c2cccc(OC(=O)NC3CCCCC3)c2)c1 [URB597] | 2.07 fold |  |
| CS(=O)(=O)c1ccc(-c2cnc(N)c(C(=O)Nc3ccccc3)n2)cc1 [VE-821] | 0.45 fold |  |
| CNCc1ccc(-c2cc(-c3nc(-c4ccc(S(=O)(=O)C(C)C)cc4)cnc3N)on2)cc1 [VE-822] | 0.86 fold |  |
| Cc1cc(Nc2cc(N3CCN(C)CC3)nc(Sc3ccc(NC(=O)C4CC4)cc3)n2)[nH]n1 [VX-680 (Tozasertib, MK-0457), Tozasertib] | 0.91 fold |  |
| O=c1ncn2nc(Sc3ccc(F)cc3F)ccc2c1-c1c(Cl)cccc1Cl [VX-745] | 6.18 fold |  |
| CCO[C@@H]1OC(=O)C[C@@H]1NC(=O)[C@@H]1CCCN1C(=O)[C@@H](NC(=O)c1ccc(N)c(Cl)c1)C(C)(C)C [VX-765] | 1.67 fold |  |
| Cc1ccc(NC(=O)C2(c3ccc4c(c3)OC(F)(F)O4)CC2)nc1-c1cccc(C(=O)O)c1 [VX-809 (Lumacaftor), Lumacaftor] | 1.07 fold |  |
| COc1cc2c(Nc3ccc(Br)cc3F)ncnc2cc1OCC1CCN(C)CC1 [Vandetanib (ZD6474), Vandetanib] | 0.25 fold |  |
| C[C@]1(c2nc3c(C(N)=O)cccc3[nH]2)CCCN1 [Veliparib (ABT-888), Veliparib] | 0.66 fold |  |
| CCCS(=O)(=O)Nc1ccc(F)c(C(=O)c2c[nH]c3ncc(-c4ccc(Cl)cc4)cc23)c1F [Vemurafenib (PLX4032, RG7204), Vemurafenib] | 0.59 fold |  |
| N#C[C@@H]1CCCN1C(=O)CNC12CC3CC(CC(O)(C3)C1)C2 [Vildagliptin (LAF-237), Vildagliptin] | 1.04 fold |  |
